The text below walks through data of patent US10308681B2, “Pharmaceutical composition for the prevention and treatment of cardiovascular disease comprising the peptide having the ability to inhibit angiotensin-1 converting enzyme as an active ingredient” (University-Industry Cooperation Group of Kyung Hee …, priority 2012, dated 2019).

The subject of experiment [1] is spontaneously hypertensive rats (SHR). The experiment can be described thus: in vivo blood pressure regulation by a single administration (systolic pressure). On the set-up: species or system rat.
Method: To investigate in vivo blood pressure regulation effect of the functional peptide separated from the oyster enzyme hydrolysate by a single administration, the peptide was administered to the hypertension animal model once (single administration), followed by the investigation of blood pressure.
Particularly, male spontaneously hypertensive rats (SHR; Central Lab. Animal Inc.) at 11 weeks and Wistar rats (Central Lab. Animal Inc.) were purchased, which were raised in a laboratory animal room in which the temperature was regulated at 22±3° C., the humidity was controlled at 50±5%, and the light/dark cycle was set at 12 h/12 h. Feeds and drinking water were provided freely. After a week of adaptation, the animals were divided into the experimental and the control groups and used for the experiment according to the guide line of Association for Assessment and Accreditation of Laboratory Care International approved by Institutional Animal Care and Use Committee, Kyunghee University College of Pharmacy. […] Then the animals were fixed for 20 minutes in a rat temperature control unit in which the temperature was maintained at 42° C. at the time point of 0, 3, 6, 9, 12, and 24 h, to let the tail vessel fully expanded. Then, systolic pressure was measured to investigate the antihypertensive activity.
For experiment [2] the test system is unchanged. The experiment is described as follows: in vivo blood pressure regulation by the repeated administration (systolic pressure). Conditions: oral, daily for 4 weeks, hydrolysate 100 mg/kg, YA 50 μg/kg. Set-up: species or system rat. Here is the method: To investigate in vivo blood pressure regulation effect of the functional peptide separated from the oyster enzyme hydrolysate by the repeated administration, the peptide was administered to the hypertension animal model repeatedly, followed by the investigation of blood pressure.
(§1) Particularly, the same rats as described in Example <5-2> were purchased and raised under the same condition. […] Systolic pressure was measured by the same manner as described in Example <5-2> on week 0, week 1, week 2, week 3, and week 4. […] The blood sample was centrifuged at 3,000 rpm for 10 minutes, and as a result serum was obtained and stored at −80° C. The levels of blood ACE and angiotensin-II in the stored serum were measured by using a commercial ELISA kit (USCN Life Science, China) according to the manufacturer's protocol.

Experiment [3] deals with blood angiotensin-II. The experiment can be described thus: level of blood angiotensin-II in serum by ELISA after repeated administration. Conditions: SHR serum after 4 weeks of oral administration, compared with negative control. Format: in vivo, rat. As to the method: as §1
Background: ELISA stands for enzyme-linked immunosorbent assay.

The test system of experiment [4] is blood ACE. The experiment is described as follows: level of blood ACE in serum by ELISA after repeated administration. Format: in vivo, rat. The following applies: SHR serum after 4 weeks of oral administration, compared with negative control. Here is the method: as §1
Experiment [5] deals with mild hypertension patients. Conditions: Shimizu 1994; cited from earlier work.

`C[C@H](CS)C(=O)N1CCC[C@H]1C(=O)O` [Captopril, reference compound]: the “blood pressure lowering effect” value in experiment [1] (by the negative control, Captopril 8 mg/kg, hydrolysate 100 mg/kg) was 18˜19%.
Turning to `C[C@H](NC(=O)[C@@H](N)Cc1ccc(O)cc1)C(=O)O` [YA, tyrosine-alanine], the “blood pressure lowering effect after 6 hours from the administration” value in experiment [1] (50 μg/kg, 6 hours) came out at 33.9%. For the same compound, the “blood pressure on repeated administration (in words)” value in experiment [2] is reported as “blood pressure did not increase for 2 weeks”. Further, in experiment [3], the “level of blood angiotensin-II (in words)” value was “significantly decreased”. In addition, the “level of blood ACE (in words)” value in experiment [4] is reported as “significantly decreased”.
valine-tyrosine [Val-Tyr]: in experiment [5], the “activity of reducing blood pressure (in words)” value was “activity of reducing blood pressure”.
